Data reported in US20180049996A1, “THERAPEUTIC AGENT FOR CHRONIC RESPIRATORY DISEASE AND COMPOSITION FOR INHIBITING CARDIAC FIBROSIS” (NIPPON HYPOX LABORATORIES INCORPORATED, priority 2015, published 2018).

Assays:
[1] = test system: Pulmonary Fibrosis Induced by Bleomycin; experiment: Histopathologic examination of lungs, pulmonary fibrosis induced by bleomycin; assay type: in vivo, male SD rats; settings: for Severity score: Alveolar space, Bleeding / Severity score: Alveolar space, Macrophage accumulation / Severity score: Alveolar space, Protein exudation / Severity score: Alveolar wall, Fibroblast accumulation / Severity score: Alveolar wall, Fibrosis of interstitial tissue / Severity score: Alveolar wall, Interstitial edema / Severity score: Alveolar wall, Mononuclear cell infiltration / Severity score: Circumvascular region, Perivascular edema / Severity score: Circumvascular region, Plasma cell infiltration / Severity score: Peribronchial and peribronchiolar regions, Fibrosis of interstitial tissue / Severity score: Peribronchial and peribronchiolar regions, Lymphoid follicle hyperplasia / Severity score: Type II alveolar epithelial cell, Adenomatous hyperplasia / Severity score: Type II alveolar epithelial cell, Atypia and dysplasia: day 20 after bleomycin
Description: Bleomycin is used to produce disease-model animals of interstitial pneumonia. The bleomycin and 2,3,5-trimethylhydroquinone-1-hexyl ether (HTHQ) as the hydroquinone derivative represented by the general formula (1) described above of the present invention were simultaneously administered to male SD rats of 10 week old after birth to examine the effect of the action. The test groups consisted of the control group to which sterile saline was administered; test group 1 to which bleomycin (7.5 mg/kg body weight) alone was administered; test group 2 to which bleomycin (7.5 mg/kg body weight) and HTHQ (50 mg/kg body weight/day) were administered in combination; and test group 3 to which bleomycin (7.5 mg/kg body weight) and HTHQ (200 mg/kg body weight/day) were administered in combination.
In test groups 1 to 3, bleomycin was orally administered in a single dose. In test groups 2 and 3, 2,3,5-trimethylhydroquinone-1-hexyl ether (HTHQ) was daily orally administered for 10 or 20 days starting from 24 h after the administration of bleomycin. In test group 1, olive oil, which was used as a solvent of HTHQ, was daily orally administered at 10 mL/kg/day starting from 24 h after the administration of bleomycin. The number of animals in each group was 16. 8 animals of each group were sacrificed on days 10 and 20 after the administration of bleomycin and measurement of body weight, lung autopsy, histopathologic examination of lungs and bronchoalveolar lavage examination were conducted.
The main lung lesions observed in the rats in test group 1 (the bleomycin-single administration group) on day 10 after the administration were the peribronchial and peribronchiola enlargement of alveoli, the hyperplasia of the alveolar wall, the infiltration of monocytes and lymphocytes in alveolar walls and interstitial tissue, and the exudation of alveolar macrophage into alveolar spaces. These lesions were alleviated in rats in test groups 2 and 3 (the HTHQ-administered groups) compared to the tissue in test group 1.
The result of the histopathologic examination of lungs of the control group and the test groups on day 20 after the administration of bleomycin is shown in Table 1 below. “−” indicates “not found”, “+” indicates “mild”, “++” indicates “moderate”, and “+++” indicates “severe” in severity scores. In test group 1 (the bleomycin-single administration group), the hyperplasia and fibrosis of peribronchial and adjacent alveolar walls became remarkable compared to the tissue on day 10 after the administration and the morphology of alveolus almost disappeared due to the infiltration of lymphocytes and neutrophils. The alveolar macrophages infiltrated within alveolar spaces were buried in surrounding tissues.

[2] = test system: Reactive oxygen species (ROS); experiment: Reactive oxygen species (ROS) in BAL cell fluid, COPD model; assay type: in vivo, C57BL/6N mice; settings: HTHQ 10 and 20 mg/kg/day oral; tobacco smoke 10 days + LPS; compared to COPD group
Description: 6 week old male SPF C57BL/6N mice, 20 to 25 g of body weight, were purchased from CORETEC INC. (South Korea).
The tests were conducted as follows. The mice in the COPD (chronic obstructive pulmonary disease) model group of the test groups were exposed to tobacco smoke for 1 hour per day (8 cigarettes/day) for 10 days and LPS (5 μg/50 μL/mouse) was intranasally administered to the mice on day 8 after the start of the tests. […]
The mice in the test groups were euthanized 72 hours after the LPS administration and the mice in the normal control group were euthanized on day 11 after the start of the tests by intraperitoneal injection of pentobarbital (Hanrimu pharmaceutical, South Korea) at 50 mg/kg and then the bronchi were excised. […] After preparing slide samples from 100 μL of BAL cell fluid using Cytospin (4° C., 1000 rpm×5 min), the cell numbers of inflammatory cells (neutrophil, macrophages) present in the BAL fluid were counted using a Diff-Quik stain kit.
Reactive oxygen species (ROS) amounts in BAL cell fluid were measured. […] Reactive oxygen species (ROS) amounts within cells were measured at an excitation wavelength of 485 nm and a fluorescence wavelength of 530 nm using a fluorescence plate analyzer (a product from PerkinElmer, Inc.).

[3] = Test group 2: bleomycin 7.5 mg/kg + HTHQ 50 mg/kg/day oral
[4] = Test group 3: bleomycin 7.5 mg/kg + HTHQ 200 mg/kg/day oral

## CCCCCCOc1cc(C)c(O)c(C)c1C [HTHQ, 2,3,5-trimethylhydroquinone-1-hexyl ether]
[1]; [3]
  Severity score: Alveolar space, Bleeding: +
  Severity score: Alveolar space, Macrophage accumulation: +
  Severity score: Alveolar space, Protein exudation: +
  Severity score: Alveolar wall, Fibroblast accumulation: ++
  Severity score: Alveolar wall, Fibrosis of interstitial tissue: ++
  Severity score: Alveolar wall, Interstitial edema: +
  Severity score: Alveolar wall, Mononuclear cell infiltration: ++
  Severity score: Circumvascular region, Perivascular edema: +
  Severity score: Circumvascular region, Plasma cell infiltration: +
  Severity score: Peribronchial and peribronchiolar regions, Fibrosis of interstitial tissue: +
  Severity score: Peribronchial and peribronchiolar regions, Lymphoid follicle hyperplasia: +
  Severity score: Type II alveolar epithelial cell, Adenomatous hyperplasia: ++
  Severity score: Type II alveolar epithelial cell, Atypia and dysplasia: +
[1]; [4]
  Severity score: Alveolar space, Bleeding: −
  Severity score: Alveolar space, Macrophage accumulation: +
  Severity score: Alveolar space, Protein exudation: ++
  Severity score: Alveolar wall, Fibroblast accumulation: +
  Severity score: Alveolar wall, Fibrosis of interstitial tissue: +
  Severity score: Alveolar wall, Interstitial edema: +
  Severity score: Alveolar wall, Mononuclear cell infiltration: ++
  Severity score: Circumvascular region, Perivascular edema: −
  Severity score: Circumvascular region, Plasma cell infiltration: −
  Severity score: Peribronchial and peribronchiolar regions, Fibrosis of interstitial tissue: +
  Severity score: Peribronchial and peribronchiolar regions, Lymphoid follicle hyperplasia: +
  Severity score: Type II alveolar epithelial cell, Adenomatous hyperplasia: +
  Severity score: Type II alveolar epithelial cell, Atypia and dysplasia: +
[1]; test groups 2 and 3: bleomycin 7.5 mg/kg + HTHQ 50 or 200 mg/kg/day oral, day 10, compared to test group 1
  histopathologic lung lesions: alleviated
[1]; test groups 2 and 3: bleomycin 7.5 mg/kg + HTHQ 50 or 200 mg/kg/day oral, day 20, compared to test group 1
  degree of histopathologic lung lesions: milder than test group 1
[2]
  amount of reactive oxygen species (ROS) in BAL cell fluid: effectively reduced
